According to patent US8211470B2, “Method for preparing nano-scale or amorphous particle using solid fat as a solvent” (Bio-Synectics Inc., priority 2003, dated 2012):

Assay: Particle size of the final powder dispersed in distilled water, particle size analyzer (Mastersizer Microplus)
Format: physicochemical
Experimental: Next, the pressure inside the collecting reactor containing the sprayed solid powders was elevated to about 150 atm by adding carbon dioxide gas into the collecting reactor. The pressure inside the collecting reactor was constantly maintained to the pressure of 100 atm or more by controlling a vent valve of the collecting reactor, while continuously adding the carbon dioxide gas. Under the constantly maintained pressure, the cetyl alcohol used as a solid fat was extracted for 8 hours with the gas of the supercritical fluid to obtain 1.8 g of fat-removed fine solid particles. The particle size of the obtained powdered mixture was determined by a particle size analyzer (Mastersizer Microplus) by dispersing the obtained powdered mixture into distilled water, and the result was shown in Table 1.
30 g of cetyl alcohol and 2 g of ketoconazole were placed into a 250 ml volume beaker and heated to 80° C. with stirring until the mixture became completely melt to form a transparent liquid. After completely melting the mixture, additional stirring for about 10 minutes was further carried out for homogeneous mixing. Then, the melted mixture was poured into a stainless steel plate which was precooled to 10° C. or less for rapid cooling and solidifying, thereby obtaining the solid product in which the active ingredient was dispersed uniformly into the fat in the form of fine particles. […]

Work on `CC(=O)N1CCN(c2ccc(OCC3COC(Cn4ccnc4)(c4ccc(Cl)cc4Cl)O3)cc2)CC1` (stereo not shown) [Raw material (Active ingredient), ketoconazole] yielded an Average particle size of 10.41 μm.
